Tests used:
[1] = system: beagle dogs under isoflurane anesthesia, right-atrial burst pacing; experiment: AF inducibility and LA size/function with phenylephrine on board (Example 3); conditions: P<0.05
[2] = system: beagle dogs (without left ventricular dysfunction); experiment: AF inducibility and LA size/function with phenylephrine on board, dobutamine (Example 4); assay type: in vivo; conditions: FIG. 6
Experimental: Once sinus rhythm was re-established (cardioversion was used if AF persisted for more than 30 minutes), a third anesthetized ECHO was performed.
The effects of dobutamine on AF inducibility and LA size and function were examined by echocardiography (ECHO) and electrocardiogram (ECG) in beagle dogs with phenylephrine (PE) on board, and compared to the effects of PE alone. The beagle dogs (without left ventricular dysfunction) were assessed for left atrial function and size and for atrial fibrillation inducibility according to the protocols described in Example 3 (experimental design shown in FIG. 5), allowing for the effects of dobutamine to be compared to those of Compound I as shown in Example 3.

SMILES | SBP, change induced by phenylephrine ([1]; PE 0.5-20 μg/kg/min fixed rate) [%] | LAmin under phenylephrine ([1]; PE 0.5-20 μg/kg/min, from 22.9±2.0) [mL/m^2] | SBP under phenylephrine ([1]; PE 0.5-20 μg/kg/min, from 88.6±2.7) [mmHg] | LAmin, change induced by phenylephrine ([1]; PE 0.5-20 μg/kg/min, increase) [%] | AF duration ([2]; dobutamine 1-10 μg/kg/hr infusion with PE) | LV contractility (ΔEF) ([2]; dobutamine 1-10 μg/kg/hr infusion)
CNC[C@H](O)c1cccc(O)c1 [phenylephrine, reference compound] | 38±7 | 29.3±2.5 | 122.4±6.9 | 28±3 |  | 
CC(CCc1ccc(O)cc1)NCCc1ccc(O)c(O)c1 (stereo not drawn) [dobutamine] |  |  |  |  | did not reduce AF duration, and in fact increased it | increase LV contractility

Reference: patent US20230233545A1, “TREATMENT OF ATRIAL DYSFUNCTION” (MyoKardia, Inc., priority 2020, published 2023)
